Assay results taken from the NIST ThermoML archive (doi:10.1016/j.jct.2009.07.002).

Assay: isobaric coefficient of expansion
Conditions: Liquid, DSC with Pressure Shift

CCCCCCO [hexan-1-ol]
isobaric coefficient of expansion
Conditions	278.15 K	288.15 K	298.15 K	308.15 K	318.15 K	328.15 K	338.15 K	348.15 K
5000 kPa	0.000821 1/K	0.000837 1/K	0.00085 1/K	0.000875 1/K	0.000898 1/K	0.000929 1/K	0.000958 1/K	0.000995 1/K
10000 kPa	0.0008 1/K	0.000819 1/K	0.000832 1/K	0.000853 1/K	0.000877 1/K	0.0009 1/K	0.000929 1/K	0.00096 1/K
15000 kPa	0.000788 1/K	0.000802 1/K	0.000812 1/K	0.000834 1/K	0.000854 1/K	0.000876 1/K	0.000903 1/K	0.000929 1/K
20000 kPa	0.000778 1/K	0.000786 1/K	0.000796 1/K	0.000815 1/K	0.000833 1/K	0.000854 1/K	0.00088 1/K	0.000903 1/K
25000 kPa	0.00076 1/K	0.000772 1/K	0.00078 1/K	0.000796 1/K	0.000812 1/K	0.000833 1/K	0.000854 1/K	0.000875 1/K
30000 kPa	0.000748 1/K	0.000756 1/K	0.000764 1/K	0.000779 1/K	0.000794 1/K	0.000813 1/K	0.000832 1/K	0.000852 1/K
35000 kPa	0.000733 1/K	0.000743 1/K	0.000749 1/K	0.000763 1/K	0.000778 1/K	0.000794 1/K	0.000813 1/K	0.000831 1/K
40000 kPa	0.000723 1/K	0.000731 1/K	0.000734 1/K	0.000747 1/K	0.000758 1/K	0.000776 1/K	0.000791 1/K	0.000808 1/K
45000 kPa	0.000716 1/K	0.00072 1/K	0.000724 1/K	0.000733 1/K	0.000745 1/K	0.000759 1/K	0.000776 1/K	0.000791 1/K
50000 kPa	0.000708 1/K	0.000703 1/K	0.000712 1/K	0.000721 1/K	0.000729 1/K	0.000745 1/K	0.000758 1/K	0.000772 1/K
55000 kPa	0.000699 1/K	0.000696 1/K	0.0007 1/K	0.000709 1/K	0.000719 1/K	0.000731 1/K	0.000744 1/K	0.000754 1/K

CCCCCCCCCO [nonan-1-ol]
isobaric coefficient of expansion
Conditions	278.15 K	288.15 K	298.15 K	308.15 K	318.15 K	328.15 K	338.15 K	348.15 K
5000 kPa	0.000819 1/K	0.000805 1/K	0.000816 1/K	0.000829 1/K	0.000846 1/K	0.000863 1/K	0.000886 1/K	0.000912 1/K
10000 kPa	0.000795 1/K	0.000791 1/K	0.000798 1/K	0.00081 1/K	0.000826 1/K	0.00084 1/K	0.000858 1/K	0.000879 1/K
15000 kPa	0.000786 1/K	0.000772 1/K	0.000782 1/K	0.000792 1/K	0.000801 1/K	0.000815 1/K	0.000831 1/K	0.000853 1/K
20000 kPa	0.000759 1/K	0.000759 1/K	0.000762 1/K	0.000773 1/K	0.000785 1/K	0.000792 1/K	0.000807 1/K	0.000827 1/K
25000 kPa	0.000741 1/K	0.000743 1/K	0.000745 1/K	0.000753 1/K	0.000764 1/K	0.000775 1/K	0.000789 1/K	0.000806 1/K
30000 kPa	0.000733 1/K	0.000728 1/K	0.000732 1/K	0.000736 1/K	0.000748 1/K	0.000759 1/K	0.000773 1/K	0.000787 1/K
35000 kPa	0.000719 1/K	0.000716 1/K	0.00072 1/K	0.000723 1/K	0.000732 1/K	0.000743 1/K	0.000754 1/K	0.000768 1/K
40000 kPa	0.000704 1/K	0.000705 1/K	0.000705 1/K	0.00071 1/K	0.000715 1/K	0.000728 1/K	0.000736 1/K	0.000749 1/K
45000 kPa	0.000693 1/K	0.000698 1/K	0.000693 1/K	0.000695 1/K	0.000702 1/K	0.000715 1/K	0.000722 1/K	0.000734 1/K
50000 kPa	0.000685 1/K	0.000691 1/K	0.000682 1/K	0.000684 1/K	0.00069 1/K	0.0007 1/K	0.000708 1/K	0.000719 1/K
55000 kPa	0.000672 1/K	0.000677 1/K	0.000672 1/K	0.000673 1/K	0.000678 1/K	0.000687 1/K	0.000695 1/K	0.000705 1/K
